For data set [1], the system named is clinically stable subjects with schizophrenia. The data set can be described thus: Clinical Study A (Phase 2a, placebo-controlled): MATRICS Consensus Cognitive Battery (MCCB). It is filed as in vivo, human. To be noted: Phase 2a study; printed indication AD.
For data set [2] the test system is unchanged. As to the kind of experiment: Clinical Study A: disposition of subjects, discontinuations and tolerability. It counts as in vivo, human. The text has this:
A Phase 2a proof-of-concept (POC) study in clinically stable subjects with schizophrenia who were clinically stable and received stable doses of atypical antipsychotic therapy. The study was a Phase 2, multi-center, randomized, double-blind, placebo-controlled, parallel group study designed to evaluate the safety and efficacy of doses of (4s)-4-(5-phenyl-1,3,4-thiadiazol-2-yloxy)-1-azatricyclo[3.3.1.1^3,7]decane (Compound A) in clinically stable male and female subjects (ages 20 to 55, inclusive) with a Diagnostic and Statistical Manual of Mental Disorders Fourth Edition, Text Revision (DSM-IV-TR) diagnosis of schizophrenia. Psychiatric diagnoses were confirmed using the Mini-International Neuropsychiatric Interview (MINI) version 6.0.0. The criteria for clinical stability was determined by a combination of retrospective data (over the 4 months prior to the start of Screening, which will be supported by clinical records, patient, identified responsible contact person, and physician interviews), and prospective data assessed during the Prospective Stabilization Period of 28 to 42 days duration.
The study was a Phase 2, multi-center, randomized, double-blind, placebo-controlled, parallel group study designed to evaluate the safety and efficacy of doses of (4s)-4-(5-phenyl-1,3,4-thiadiazol-2-yloxy)-1-azatrieyclo[3.3.1.1^3,7]decane, which is also recognized as Compound A, in treating cognitive deficits in subjects with schizophrenia who were clinically stable and receiving one or two atypical antipsychotic medications. Study drug was administered orally.
The study consisted of a screening period of at least 28 and up to 42 days, a 84-day outpatient treatment period, a 14-day post-treatment period, and a post-treatment follow-up period. The screening period consisted of three visits: Screening Visit 1, Screening Visit 2, and Day −1. Upon completion of Day −1 procedures, eligible subjects were randomized through an Interactive Voice Response/Interactive Web-Based (IVR/IWB) system. Subjects were randomized in an equal ratio to one of three treatment groups (placebo, 10 mg Compound A, or 25 mg Compound A).
Subjects were randomized in a 1:1:1 ratio with placebo, 10 mg QD Compound A, of 25 mg Compound A. Each subject was instructed to take study drug once-daily in the morning for 12 weeks. Each daily dose was preferably taken with food. The subject and investigator were blinded to the treatment assignment throughout the study. The treatment assignments for the study subjects are shown below in Table 1.
Subjects completed 2 visits during the screening period. Study site personnel contacted each subject by telephone on Day 21, 35, and 70 of the 84-day treatment period to discuss study drug compliance, antipsychotic medication compliance, concomitant medication use, substance use, and any adverse events.
A total of 207 subjects were randomized.

In the case of `c1ccc(-c2nnc(O[C@@H]3C4CC5C[C@H]3C[N@](C5)C4)s2)cc1` [Compound A, (4s)-4-(5-phenyl-1,3,4-thiadiazol-2-yloxy)-1-azatricyclo[3.3.1.1^3,7]decane], in data set [1], the “Signal for efficacy in symptomatic treatment” value is recorded as “demonstrated a signal for efficacy”. Moreover, the “Discontinuation, primary reason Adverse event, % of treated subjects” value in data set [2] (10 mg QD) is reported as “(5.8) %”; in data set [2] (25 mg QD), “(4.5) %”; in data set [2] (Compound A Overall), “(5.1) %”. Also, the Tolerability result in data set [2] (human patients with schizophrenia, summary statement) is given as “generally well tolerated”; in data set [2] (subjects with schizophrenia, doses up to 25 mg QD, including 10 mg QD and 25 mg QD) it was “well tolerated”.

(Values after US20130317055A1, “NEURONAL NICOTINIC AGONIST AND METHODS OF USE” (ABBVIE INC., priority 2012, published 2013).)
